According to article PMC9569447 (International Journal of Molecular Sciences, 2022):
“Also recorded” adds a separate entry of the source. Numbered stars: 1 amine (or outer) side, 2 acyl side, 3 side chain; on linkers, the order of the positions; unused ones are H or OH. Bridge positions count the residues as written; N and C are the ends. Square brackets hold non-standard residues; d marks the D form. Side chains are listed from the residue outwards. Peptide text beside a SMILES is read from it. * marks the point of attachment. PEG8 = NCCOCCOCCOCCOCCOCCOCCOCCOCCC(=O)O; Palmitoyl = CCCCCCCCCCCCCCCC(=O)*; hCys = N[C@@H](CCS)C(=O)O; X1 = O=C(CC[*:2])[*:1]

Assays:
[1] = system: diet-induced obese (DIO) Sprague Dawley rats; assay: Dose escalation study: body weight, food and water intake; type: in vivo, rat
Excerpt: Male DIO Sprague Dawley rats (n = 4) were fed 60% HF diet (formula: D12492; Research Diets, Inc., New Brunswick, NJ, USA; 5.21 kcal/g) for 16 weeks prior to the start of the study. Rats were changed to being singly housed and allowed to acclimate for at least one week prior to the start of this study. Animals averaged 844.15 ± 99.95 g at baseline. Baseline measures of body weight, food intake, and water intake were taken for 6 days before drug administration began. Doses for the dose escalation study included 1, 2, 5, 10, 20, 50, and 100 nmol/kg. Body weight, food and water intake were assessed just prior to the start of the dark cycle.

[2] = biological target: T1, human V2 receptor (Homo sapiens, UniProt P30518); assay: In vitro functional assay at V2R (cAMP production, HTRF); type: cell-based; conditions: result in words
T1 construct: expressed in transfected cells; host or cells: CHO
Description: Evaluation of the agonist activity of ASK2131 at the human V2 receptor expressed in stably transfected CHO cells was conducted by measuring its effects on cAMP production using the HTRF detection method. The cells were suspended in HBSS buffer (Invitrogen, Carlsbad, CA) complemented with 20 mM HEPES (pH 7.4), 0.01% BSA and 500 μM IBMX, then distributed in microplates at a density of […] cells/well and incubated for 30 min at room temperature in the absence (control) or presence of the test compound or the reference agonist.
For stimulated control measurement, separate assay wells contained 1 nM AVP. Following incubation, the cells were lysed, and the fluorescence acceptor (D2-labeled cAMP) and fluorescence donor (anti-cAMP antibody labeled with europium cryptate) were added. After 60 min at room temperature, the fluorescence transfer was measured at λex = 337 nm and λem = 620 and 665 nm using a microplate reader (Envision, Perkin Elmer, Waltham, MA, USA). The cAMP concentration was determined by dividing the signal measured at 665 nm by that measured at 620 nm (ratio).
The results were expressed as a percent of the control response to 1 nM AVP. The standard reference agonist was AVP, which was tested in each experiment at several concentrations to generate a concentration-response curve from which its EC50 value was calculated.

[3] = biological target: T2, hOXTR (Homo sapiens, UniProt P30559); assay: In vitro functional assay at the OXT receptor (Ca2+ flux, fluorometric imaging plate reader); type: cell-based; conditions: ratio of EC50 values hOXTR/hV2R
T2 construct: expressed in transfected cells
T2 sequence (P30559 1-389): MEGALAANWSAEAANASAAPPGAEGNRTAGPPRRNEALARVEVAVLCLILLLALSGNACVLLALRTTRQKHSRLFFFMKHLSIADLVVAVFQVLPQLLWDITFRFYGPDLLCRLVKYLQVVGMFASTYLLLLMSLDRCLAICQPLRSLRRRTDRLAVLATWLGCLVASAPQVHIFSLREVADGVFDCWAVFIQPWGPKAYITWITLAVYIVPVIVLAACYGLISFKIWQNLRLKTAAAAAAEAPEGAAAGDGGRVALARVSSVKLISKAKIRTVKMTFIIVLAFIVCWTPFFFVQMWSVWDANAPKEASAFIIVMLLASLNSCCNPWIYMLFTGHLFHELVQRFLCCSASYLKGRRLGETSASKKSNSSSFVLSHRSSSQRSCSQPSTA
Description: In a typical experimental protocol, stably transfected Chinese hamster ovary (CHO) hOTR NFAT bLac cells were plated at a density of 10,000 cells/well in a 384-well plate in growth medium (Dulbecco’s modified Eagle’s medium + Glutamax (Thermo Fisher Scientific, Waltham, MA, USA), 10% dialyzed fetal bovine serum). The next day calcium-sensitive, fluo-4 dye (Invitrogen, Carlsbad, CA, USA) and probenecid (Invitrogen; 2.5 mM) was dissolved in 20 mL warm dye loading buffer (Hanks’ balanced salt solution with calcium and magnesium, 20 mM Hepes, pH 7.4) and added to each well. Plates were incubated for 60–120 min in a 37 °C cell incubator to allow cells to uptake the dye. […] After dye-loading, the cell plates were placed on the fluorometric imaging plate reader. A total of […] of test compound was added to the […] of dye on the cells, and intracellular Ca^2+ was monitored for 90 s. Intracellular Ca^2+ concentrations were calculated as the maximum increase over basal levels. Responses were normalized to control responses. Data were analyzed by curve fitting.

[4] = biological target: T3, human V1a receptor (Homo sapiens, UniProt P37288); assay: In vitro functional assay at V1aR (cytosolic Ca2+ mobilization, fluorimetric); type: cell-based; conditions: agonist activity, result in words
T3 construct: expressed in transfected cells; host or cells: CHO
Description: The cells were suspended in DMEM buffer (Invitrogen, Carlsbad, CA, USA) complemented with 0.1% FCS, then distributed in microplates at a density of 4.5 × 10^4 cells/well. The fluorescent probe (Fluo4 Direct, Invitrogen, Carlsbad, CA, USA) mixed with probenicid in HBSS buffer (Invitrogen, Carlsbad, CA, USA) complemented with 20 mM HEPES (Invitrogen; Carlsbad, CA, USA) (pH 7.4) was then added into each well and equilibrated with the cells for 60 min at 37 °C then 15 min at 22 °C. The assay plates were positioned in a microplate reader (CellLux, PerkinElmer, Waltham, MA, USA) followed by the addition of the test compound ASK2131, reference agonist or HBSS buffer (basal control), and the measurements of changes in fluorescence intensity which varies proportionally to the free cytosolic Ca^2+ ion concentration. For stimulated control measurements, AVP at 1 μM was added in separate assay wells. The results were expressed as a percent of the control response to 1 μM AVP. The standard reference agonist was AVP, which was tested in each experiment at several concentrations to generate a concentration-response curve from which its EC50 value was calculated.

[5] = in vivo; conditions: male, Sprague Dawley, rat, sc
[6] = system: UCP1; assay: Gene expression of UCP1 in IWAT and IBAT (qRT-PCR); type: in vivo, rat
Excerpt: IWAT and IBAT were homogenized using a TissueLyser LT (Qiagen, Hilden, Germany). RNA was extracted from the tissue lysates using the RNeasy Lipid Mini Kit (mfg. # 74804; Qiagen, Hilden, Germany) and reverse transcribed using the high-capacity cDNA kit (mfg. # 4368814; Applied Biosystems, Waltham, MA, USA). qRT-PCR was completed on the mRNA samples using the Applied Biosystems StepOnePlus System (Applied Biosystems, Waltham, MA, USA). All samples were normalized to the cycle threshold value of 18S mRNA. The following TaqMan® probes (Applied Biosystems, Waltham, MA, USA) were used in this study: 18S (cat. # Hs99999901_s1), UCP1 (cat. # Rn00562126_m1), and Cox8b (cat. # Rn00562884_m1). Analysis was completed using the delta CT method.

T1 sequence (P30518 whole entry): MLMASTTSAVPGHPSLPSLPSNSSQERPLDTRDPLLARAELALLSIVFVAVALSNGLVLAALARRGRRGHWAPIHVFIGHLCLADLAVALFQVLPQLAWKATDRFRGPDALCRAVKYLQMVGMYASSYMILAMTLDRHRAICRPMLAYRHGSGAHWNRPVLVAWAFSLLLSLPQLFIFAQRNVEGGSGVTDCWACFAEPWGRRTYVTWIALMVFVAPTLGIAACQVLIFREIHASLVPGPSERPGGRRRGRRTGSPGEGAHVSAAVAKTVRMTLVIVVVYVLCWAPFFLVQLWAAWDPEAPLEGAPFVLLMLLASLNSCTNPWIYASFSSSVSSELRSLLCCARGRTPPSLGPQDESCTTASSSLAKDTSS
T3 sequence (P37288 whole entry): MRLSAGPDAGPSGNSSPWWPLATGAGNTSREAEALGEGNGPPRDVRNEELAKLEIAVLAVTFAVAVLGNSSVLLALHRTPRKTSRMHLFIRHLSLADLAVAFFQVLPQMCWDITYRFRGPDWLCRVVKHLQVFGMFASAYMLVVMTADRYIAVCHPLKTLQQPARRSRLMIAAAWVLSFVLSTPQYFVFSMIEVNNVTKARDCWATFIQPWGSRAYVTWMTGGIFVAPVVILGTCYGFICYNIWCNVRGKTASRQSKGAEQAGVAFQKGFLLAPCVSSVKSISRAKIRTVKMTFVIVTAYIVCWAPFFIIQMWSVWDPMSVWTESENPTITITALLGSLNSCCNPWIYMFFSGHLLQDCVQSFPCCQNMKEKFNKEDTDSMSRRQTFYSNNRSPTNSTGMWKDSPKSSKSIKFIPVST

With `CCCCCCCCCCCCCCCC(=O)NCCOCCOCCOCCOCCOCCOCCOCCOCCC(=O)NCCCC[C@H](NC(=O)CNC(=O)[C@@H]1CCSCCC(=O)N[C@@H](Cc2ccc(O)cc2)C(=O)N[C@@H]([C@@H](C)CC)C(=O)N[C@@H](CCC(N)=O)C(=O)N[C@@H](CC(N)=O)C(=O)N1)C(=O)NCC(N)=O` [ASK2131] (YIQN[hCys]GK([PEG8-Palmitoyl])G-NH2; linker N-5 via X1) as the compound, how does the “2-day averaged food intake reduction relative to baseline” value ([1]; DIO rats, at doses < 2 nmol/kg and > 5 nmol/kg) read?
The value was 20–25%.

What about the “loss in body weight compared to baseline” value ([1]; DIO rats, once daily sc doses rising every two days from 1 to 100 nmol/kg, average per rat over the treatment period) of the same compound?
The value was 8.4%.

What about the “decrease in body weight compared to baseline” value ([1]; at 2 nmol/kg, after only four treatments) of the same compound?
Its value is ~ 4%.

And the adverse response ([1]; one rat with severe diarrhea was terminated and excluded, result in words)?
Its adverse response is “No other animals treated with ASK2131 showed any signs of an adverse response”.

What about the water intake ([1]; with increased dosing of ASK2131, result in words) of the same compound?
The water intake was “not significantly different from baseline”.

And the V2R activation [2]?
The V2R activation was “potent activator of V2R; also recorded: activate V2R”.

What about the “Ratio hOXTR/hV2R” value [3] of the same compound?
Its value is 3.06.

And the V1aR activation [4]?
The V1aR activation was “did not display V1aR activation; also recorded: Neither molecule, ASK1476 or ASK2131, is active”.

And the half-life [5]?
Its half-life is 2.3 h.

What about the “gene expression (UCP1, Cox8b) in comparison to the vehicle treated group” value ([6]; IWAT and IBAT, result in words) of the same compound?
Its value is “none of the examined genes showed a significant response”.

And the “UCP1 expression in IBAT, mean rank difference (MRD), ASK2131 relative to OXT treatment” value ([6]; interscapular brown adipose tissue, qRT-PCR normalized to 18S, p = 0.011)?
The value was −12.5.

What about the “UCP1 expression in IWAT, mean difference (MD), ASK2131 relative to OXT treatment” value ([6]; qRT-PCR normalized to 18S, 95% CI −4.23 to 0.42, p = 0.014) of the same compound?
Its value is −2.32.
